From patent US20110105509A1 (Wyeth, LLC, priority 2009, published 2011)

The compounds below were run against T1, CRTH2 (Homo sapiens, UniProt Q9Y5Y4) (assay: FRET based competitive immunoassay (cAMP) in CRTH2 expressing CHO cells). Settings: CRTH2 expressing CHO cells incubated with forskolin and PGD2; Eu3+ cryptate-labeled anti-cAMP and d2-labeled cAMP.
T1 construct: expressed in transfected cells; host or cells: CHO cells
T1 sequence (Q9Y5Y4 1-395): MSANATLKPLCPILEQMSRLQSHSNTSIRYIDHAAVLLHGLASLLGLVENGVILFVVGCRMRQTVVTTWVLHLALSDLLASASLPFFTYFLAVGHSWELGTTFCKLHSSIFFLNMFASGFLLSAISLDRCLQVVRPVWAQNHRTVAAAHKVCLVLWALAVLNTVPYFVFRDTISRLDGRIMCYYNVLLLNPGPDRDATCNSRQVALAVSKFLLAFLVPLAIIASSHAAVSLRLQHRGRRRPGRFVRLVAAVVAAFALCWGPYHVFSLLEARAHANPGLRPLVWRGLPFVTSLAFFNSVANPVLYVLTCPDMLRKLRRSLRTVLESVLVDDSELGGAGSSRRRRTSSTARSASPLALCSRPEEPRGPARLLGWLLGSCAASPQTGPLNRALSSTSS
Assay type: cell-based
Method: FRET Assay: To evaluate potency compounds were tested in a FRET based competitive immunoassay in which CRTH2 expressing CHO cells were incubated in the presence of forskolin and PGD2 along with Eu3+ cryptate-labeled anti-cAMP and d2-labeled cAMP.

SMILES | IC50 [nM]
Cc1c(-c2nn(Cc3ccccc3C(F)(F)F)c(=O)c3ccccc23)c2cc(F)ccc2n1CC(=O)O [Example 202, 2-(5-fluoro-2-methyl-3-(4-oxo-3-(2-(trifluoromethyl)benzyl)-3,4-dihydrophthalazin-1-yl)-1H-indol-1-yl)acetic acid] | 9
Cc1c(-c2nn(Cc3cccc(C(F)(F)F)c3)c(=O)c3ccccc23)c2cc(F)ccc2n1CC(=O)O [Example 203, 2-(5-fluoro-2-methyl-3-(4-oxo-3-(3-(trifluoromethyl)benzyl)-3,4-dihydro-phthalazin-1-yl)-1H-indol-1-yl)acetic acid] | 10
Cc1c(-c2nn(Cc3ccc(C(F)(F)F)cc3)c(=O)c3ccccc23)c2cc(F)ccc2n1CC(=O)O [Example 204, 2-(5-fluoro-2-methyl-3-(4-oxo-3-(4-(trifluoromethyl)benzyl)-3,4-dihydrophthalazin-1-yl)-1H-indol-1-yl)acetic acid] | 10
Cc1c(-c2nn(-c3ccccc3)c(=O)c3ccccc23)c2cc(F)ccc2n1CC(=O)O [Example 205, 2-(5-fluoro-2-methyl-3-(4-oxo-3-phenyl-3,4-dihydrophthalazin-1-yl)-1H-indol-1-yl)-acetic acid] | 60
Cc1c(-c2nn(-c3ccc(C(F)(F)F)cc3)c(=O)c3ccccc23)c2cc(F)ccc2n1CC(=O)O [Example 206, 2-(5-fluoro-2-methyl-3-(4-oxo-3-(4-(trifluoromethyl)phenyl)-3,4-dihydrophthalazin-1-yl)-1H-indol-1-yl)acetic acid] | 320
Cc1c(-c2nn(-c3cccc(C(F)(F)F)c3)c(=O)c3ccccc23)c2cc(F)ccc2n1CC(=O)O [Example 207, 2-(5-fluoro-2-methyl-3-(4-oxo-3-(3-(trifluoromethyl)phenyl)-3,4-dihydrophthalazin-1-yl)-1H-indol-1-yl)acetic acid] | 588
Cc1c(-c2nn(Cc3nc4cc(Cl)ccc4s3)c(=O)c3ccccc23)c2cc(F)ccc2n1CC(=O)O [Example 208, 2-(3-(3-((5-chlorobenzo[d]thiazol-2-yl)methyl)-4-oxo-3,4-dihydrophthalazin-1-yl)-5-fluoro-2-methyl-1H-indol-1-yl)acetic acid] | 3
Cc1c(-c2nn(Cc3nc4cc(Cl)ccc4s3)c(=O)c3ccccc23)c2cc(Cl)ccc2n1CC(=O)O [Example 209, 2-(5-chloro-3-(3-((5-chlorobenzo[d]thiazol-2-yl)methyl)-4-oxo-3,4-dihydro-phthalazin-1-yl)-2-methyl-1H-indol-1-yl)acetic acid] | 14
Cc1c(-c2nn(CCOc3ccc(Cl)cc3)c(=O)c3ccccc23)c2cc(F)ccc2n1CC(=O)O [Example 210, 2-(3-(3-(2-(4-chlorophenoxy)ethyl)-4-oxo-3,4-dihydrophthalazin-1-yl)-5-fluoro-2-methyl-1H-indol-1-yl)acetic acid] | 2
Cc1c(-c2ccc(=O)n(Cc3ccc(C(F)(F)F)cc3)n2)c2cc(Cl)ccc2n1CC(=O)O [Example 213, 2-(5-chloro-2-methyl-3-(6-oxo-1-(4-(trifluoromethyl)benzyl)-1,6-dihydropyridazin-3-yl)-1H-indol-1-yl)acetic acid] | 19
Cc1c(-c2nn(Cc3ccccc3)c(=O)c3ccccc23)c2cc(S(C)(=O)=O)ccc2n1CC(=O)O [Example 215, 2-(3-(3-benzyl-4-oxo-3,4-dihydrophthalazin-1-yl)-2-methyl-5-(methylsulfonyl)-1H-indol-1-yl)acetic acid] | 27
Cc1c(-c2nn(CC(C)(C)Oc3ccccc3)c(=O)c3ccccc23)c2cc(F)ccc2n1CC(=O)O [Example 220, 2-(5-fluoro-2-methyl-3-(3-(2-methyl-2-phenoxypropyl)-4-oxo-3,4-dihydrophthalazin-1-yl)-1H-indol-1-yl)acetic acid] | 18
Cc1c(-c2nn(CCOc3ccccc3)c(=O)c3ccccc23)c2cc(Cl)ccc2n1CC(=O)O [Example 221, 2-(5-chloro-2-methyl-3-(4-oxo-3-(2-phenoxyethyl)-3,4-dihydrophthalazin-1-yl)-1H-indol-1-yl)acetic acid] | 6
Cc1c(-c2nn(CCOc3ccccc3)c(=O)c3ccccc23)c2cc(F)ccc2n1CC(=O)O [Example 222, 2-(5-fluoro-2-methyl-3-(4-oxo-3-(2-phenoxyethyl)-3,4-dihydrophthalazin-1-yl)-1H-indol-1-yl)acetic acid] | 1
Cc1c(-c2nn(CCOc3ccccc3)c(=O)c3ccccc23)c2ccccc2n1CC(=O)O [Example 223, 2-(2-methyl-3-(4-oxo-3-(2-phenoxyethyl)-3,4-dihydrophthalazin-1-yl)-1H-indol-1-yl)acetic acid] | 6
Cc1c(-c2nn(CCc3ccc(F)cc3)c(=O)c3ccccc23)c2ccccc2n1CC(=O)O [Example 224, 2-(3-(3-(4-fluorophenethyl)-4-oxo-3,4-dihydrophthalazin-1-yl)-2-methyl-1H-indol-1-yl)acetic acid] | 93
Cc1c(-c2nn(CCc3ccccc3)c(=O)c3ccccc23)c2ccccc2n1CC(=O)O [Example 225, 2-(2-methyl-3-(4-oxo-3-phenethyl-3,4-dihydrophthalazin-1-yl)-1H-indol-1-yl)acetic acid] | 27
Cc1c(-c2nn(CCc3ccccc3)c(=O)c3ccccc23)c2cc(F)ccc2n1CC(=O)O [Example 226, 2-(5-fluoro-2-methyl-3-(4-oxo-3-phenethyl-3,4-dihydrophthalazin-1-yl)-1H-indol-1-yl)acetic acid] | 2
Cc1c(-c2nn(CCc3ccc(F)cc3)c(=O)c3ccccc23)c2cc(F)ccc2n1CC(=O)O [Example 227, 2-(5-fluoro-3-(3-(4-fluorophenethyl)-4-oxo-3,4-dihydrophthalazin-1-yl)-2-methyl-1H-indol-1-yl)acetic acid] | 3
Cc1c(-c2ccc(=O)n(C(C)C)n2)c2cc(F)cc(Cl)c2n1CC(=O)O [Example 232, 2-(7-chloro-5-fluoro-3-(1-isopropyl-6-oxo-1,6-dihydropyridazin-3-yl)-2-methyl-1H-indol-1-yl)acetic acid] | 1080

Next, values leading:

IC50 [nM] | SMILES
22 | Cc1c(-c2ccc(=O)n(Cc3ccccc3C(F)(F)F)n2)c2cc(Cl)ccc2n1CC(=O)O [Example 211, 2-(5-chloro-2-methyl-3-(6-oxo-1-(2-(trifluoromethyl)benzyl)-1,6-dihydro-pyridazin-3-yl)-1H-indol-1-yl)acetic acid]
33 | Cc1c(-c2ccc(=O)n(Cc3cccc(C(F)(F)F)c3)n2)c2cc(Cl)ccc2n1CC(=O)O [Example 212, 2-(5-chloro-2-methyl-3-(6-oxo-1-(3-(trifluoromethyl)benzyl)-1,6-dihydropyridazin-3-yl)-1H-indol-1-yl)acetic acid]
351 | Cc1c(-c2ccc(=O)n(Cc3ccccc3)n2)c2cc(S(C)(=O)=O)ccc2n1CC(=O)O [Example 214, 2-(3-(1-benzyl-6-oxo-1,6-dihydropyridazin-3-yl)-2-methyl-5-(methylsulfonyl)-1H-indol-1-yl)acetic acid]
14 | Cc1c(-c2ccc(=O)n(Cc3ccccc3C(F)(F)F)n2)c2cc(F)ccc2n1CC(=O)O [Example 216, 2-(5-fluoro-2-methyl-3-(6-oxo-1-(2-(trifluoromethyl)benzyl)-1,6-dihydropyridazin-3-yl)-1H-indol-1-yl)acetic acid]
24 | Cc1c(-c2ccc(=O)n(Cc3cccc(C(F)(F)F)c3)n2)c2cc(F)ccc2n1CC(=O)O [Example 218, 2-(5-fluoro-2-methyl-3-(6-oxo-1-(3-(trifluoromethyl)benzyl)-1,6-dihydropyridazin-3-yl)-1H-indol-1-yl)acetic acid]
30 | Cc1c(-c2ccc(=O)n(Cc3ccccc3)n2)c2cc(Br)ccc2n1CC(=O)O [Example 219, 2-(3-(1-benzyl-6-oxo-1,6-dihydropyridazin-3-yl)-5-bromo-2-methyl-1H-indol-1-yl)-acetic acid]
147 | Cc1c(-c2ccc(=O)n(CCc3ccccc3)n2)c2ccccc2n1CC(=O)O [Example 228, 2-(2-methyl-3-(6-oxo-1-phenethyl-1,6-dihydropyridazin-3-yl)-1H-indol-1-yl)acetic acid]
136 | Cc1c(-c2ccc(=O)n(CCc3ccc(F)cc3)n2)c2ccccc2n1CC(=O)O [Example 229, 2-(3-(1-(4-fluorophenethyl)-6-oxo-1,6-dihydropyridazin-3-yl)-2-methyl-1H-indol-1-yl)acetic acid]
232 | Cc1c(-c2ccc(=O)n(CC(C)(C)Oc3ccccc3)n2)c2cc(F)ccc2n1CC(=O)O [Example 230, 2-(5-fluoro-2-methyl-3-(1-(2-methyl-2-phenoxypropyl)-6-oxo-1,6-dihydropyridazin-3-yl)-1H-indol-1-yl)acetic acid]
401 | Cc1c(-c2ccc(=O)n(Cc3ccccc3)n2)c2cc(F)cc(Cl)c2n1CC(=O)O [Example 231, 2-(3-(1-benzyl-6-oxo-1,6-dihydropyridazin-3-yl)-7-chloro-5-fluoro-2-methyl-1H-indol-1-yl)acetic acid]
147 | Cc1c(-c2ccc(=O)n(Cc3ccccc3)n2)c2cc(F)cc(F)c2n1CC(=O)O [Example 233, 2-(3-(1-benzyl-6-oxo-1,6-dihydropyridazin-3-yl)-5,7-difluoro-2-methyl-1H-indol-1-yl)acetic acid]
1000 | Cc1c(-c2ccc(=O)n(Cc3ccccc3)n2)c2cc(Cl)cc(Cl)c2n1CC(=O)O [Example 234, 2-(3-(1-benzyl-6-oxo-1,6-dihydropyridazin-3-yl)-5,7-dichloro-2-methyl-1H-indol-1-yl)acetic acid]
